Tested on: Orobanche cumana Wallr. seeds (race F; seed lots IN146 and IN153)
Assay: Germination of preconditioned Orobanche cumana seeds on glass fiber filter paper in petri dishes
Format: in vivo
Conditions: mean, N = 5 × 100 seeds, re-transformed data; for Germination (%): seed lot IN146 raceF, examined 10 days later
Method: The effect of compounds of formula (I) on germination of Orobanche cumana Wallr. seeds was evaluated on glass fiber filter paper (GFFP) in petri dishes. Seeds were preconditioned at moisture and suitable temperature to become responsive to the specific chemical germination stimulants.
Test compounds were dissolved in DMSO (10 000 mg 1^−1) and stored at room temperature in a desiccators with desiccants. The stock solutions were dissolved with deionised water to the appropriate final test concentration.
Seeds of O. cumana race ‘F’ were collected from sunflower fields in Manzanilla (Seville, Spain) in 2006 (seed lot IN146) and 2008 (seed lot IN153) and stored at room temperature. To separate seeds from heavy organic debris, a modified sucrose floatation technique as described by Hartman & Tanimonure (Plant Disease (1991), 75, p. 494) was applied. Seeds were filled into a separation funnel and stirred in water. When seeds floated to the surface, the water fraction containing heavy debris was discarded. Seeds were re-suspended in 2.5M sucrose solution (specific gravity of 1.20) and heavy debris was allowed to settle down for 60 min. After removing debris, seeds were disinfected in 1% sodium hypochlorite solution and 0.025% (v/v) Tween 20 for 2 min. The seeds were decanted onto two layers of cheesecloth, rinsed with sterile deionised water and re-suspended in sterile deionised water. Two ml of the seed suspension containing approximately 150-400 seeds were spread evenly on two layers of sterile glass fiber filter paper disc ([…]) in Petri dishes (Ø9 cm). After wetting the discs with 3 ml sterile deionised water, petri dishes were sealed with parafilm. Seeds were incubated for 10 days at 20° C. in the dark for seed conditioning. The upper disc with conditioned seeds was briefly dried, transferred to a petri dish lined with a dry GFFP disc, and wetted with 6 ml of the appropriate test solution. The compounds of formula (I) were tested at concentrations of 0.001, 0.01, and 0.1 mg 1^−1. The strigolactone analogue GR24 (commercially available as a mixture of isomers) was included as positive control and 0.001% DMSO as negative control. All treatments were tested in five replicates. Seeds were re-incubated at 20° C. in the dark and examined for germination 10 days later. The radicles of germinated seeds were stained for 5 min with blue ink (MIGROS, Switzerland) in 5% acetic acid according to Long et al. (Seed Science Research (2008), 18, p. 125). After staining, seeds were scanned using a flatbed scanner with an optical resolution of 1200 dpi (PULSTEK, OpticPro ST28) or photographed using a camera stand mounted with a digital SLR camera (Canon EOS 5D). Germination of 100 seeds per replicate was evaluated on digital images. Seeds were considered germinated when the radicle protruded from the seed coat. SAS statistical software package version 9.1 was used for analysis of variance (GLM procedure) and multiple comparisons of treatment means (Sidak t-test) based on arcsine transformed percentage germination data.

[1] = Table 7, seed lot IN153, race F, 0.001 mg l^−1
[2] = Table 7, seed lot IN153, race F, 0.01 mg l^−1
[3] = Table 7, seed lot IN153, race F, 0.1 mg l^−1
[4] = Table 5, seed lot IN146, race F, 0.001 mg l^−1
[5] = Table 5, seed lot IN146, race F, 0.01 mg l^−1
[6] = Table 5, seed lot IN146, race F, 0.1 mg l^−1
[7] = 0.001 mg l^−1, lot IN146, raceF, Table 4
[8] = 0.01 mg l^−1, lot IN146, raceF, Table 4
[9] = 0.1 mg l^−1, lot IN146, raceF, Table 4
[10] = Table 8, seed lot IN153, race F, 0.001 mg l^−1
[11] = Table 8, seed lot IN153, race F, 0.01 mg l^−1
[12] = Table 8, seed lot IN153, race F, 0.1 mg l^−1

## COc1ccc2c(c1)CC1C(=COC3C=C(C)C(=O)O3)C(=O)NC21 (stereo not drawn) [Compound A4]
[1]
  Germination % at concentration of 0.001 mg l^−1: 98.9 a %
[2]
  Germination % at concentration of 0.01 mg l^−1: 95.8 ab %
[3]
  Germination % at concentration of 0.1 mg l^−1: 99.0 a %

## CC1=CC(OC=C2C(=O)NC3c4cccc(Br)c4CC23)OC1=O (stereo not drawn) [Compound A2]
[4]
  Germination % at concentration of 0.001 mg l^−1: 76.9 abc %
[5]
  Germination % at concentration of 0.01 mg l^−1: 82 ab %
[6]
  Germination % at concentration of 0.1 mg l^−1: 83.2 ab %

## CCCc1cccc2c1C1NC(=O)C(=COC3C=C(C)C(=O)O3)C1C2 (stereo not drawn) [Compound A13]
[7]
  Germination % at concentration of 0.001 mg l^−1: 14.3 de %
[8]
  Germination % at concentration of 0.01 mg l^−1: 64.5 abcd %
[9]
  Germination % at concentration of 0.1 mg l^−1: 21.5 cde %

## CC1=CC(OC=C2C(=O)N(c3ccc(Cl)cc3)C3c4ccccc4CC23)OC1=O (stereo not drawn) [Compound A18]
[1]
  Germination % at concentration of 0.001 mg l^−1: 89.8 ab %
[2]
  Germination % at concentration of 0.01 mg l^−1: 99.1 a %
[3]
  Germination % at concentration of 0.1 mg l^−1: 99.1 a %

## CC1=CC(OC=C2C(=O)NC3c4cc(C)ccc4CC23)OC1=O (stereo not drawn) [Compound A3]
[1]
  Germination % at concentration of 0.001 mg l^−1: 96.4 ab %
[2]
  Germination % at concentration of 0.01 mg l^−1: 98.5 a %
[3]
  Germination % at concentration of 0.1 mg l^−1: 98.0 a %

## CC1=CC(OC=C2C(=O)NC3c4c(C)cccc4CC23)OC1=O (stereo not drawn) [Compound A8]
Table 6, seed lot IN146, race F, 0.001 mg l^−1
  Germination % at concentration of 0.001 mg l^−1: 72.9 bc %
Table 6, seed lot IN146, race F, 0.01 mg l^−1
  Germination % at concentration of 0.01 mg l^−1: 84.4 abc %
Table 6, seed lot IN146, race F, 0.1 mg l^−1
  Germination % at concentration of 0.1 mg l^−1: 69.9 bc %

## CC1=CC(OC=C2C(=O)NC3c4c(C#N)cccc4CC23)OC1=O (mixture of isomers) [A12*]
[7]
  Germination % at concentration of 0.001 mg l^−1: 0 e %
[8]
  Germination % at concentration of 0.01 mg l^−1: 4.2 e %
[9]
  Germination % at concentration of 0.1 mg l^−1: 32 bcde %

## CCCc1cccc2c1CC1C(=COC3C=C(C)C(=O)O3)C(=O)NC21 (stereo not drawn) [Compound A14]
[4]
  Germination % at concentration of 0.001 mg l^−1: 85.3 ab %
[5]
  Germination % at concentration of 0.01 mg l^−1: 91.5 a %
[6]
  Germination % at concentration of 0.1 mg l^−1: 86.2 ab %

## CC1=CC(O/C=C2/C(=O)NC3c4ccccc4C[C@H]23)OC1=O (stereo in doubt) [Compound P1, (3aR*,8bS*,5′R*)-3-[1-(4-Methyl-5-oxo-2,5-dihydro-furan-2-yloxy)-meth-(E)-ylidene]-3,3a,4,8b-tetrahydro-1H-indeno[1,2-b]pyrrol-2-one]
0.001 mg l^−1
  Germination (%): 70.5%
0.01 mg l^−1
  Germination (%): 83.7%
0.1 mg l^−1
  Germination (%): 83.1%

## CC1=CC(OC=C2C(=O)NC3c4cccc(C#N)c4CC23)OC1=O (stereo not drawn) [Compound A11]
[4]
  Germination % at concentration of 0.001 mg l^−1: 86.3 ab %
[5]
  Germination % at concentration of 0.01 mg l^−1: 88.4 ab %
[6]
  Germination % at concentration of 0.1 mg l^−1: 85.5 ab %

## CC1=CC(OC=C2C(=O)N(CC#N)C3c4ccccc4CC23)OC1=O (mixture of isomers) [A28*]
[10]
  Germination % at concentration of 0.001 mg l^−1: 42.4 ef %
[11]
  Germination % at concentration of 0.01 mg l^−1: 89.2 abc %
[12]
  Germination % at concentration of 0.1 mg l^−1: 96.3 ab %

## CC1=CC(OC=C2C(=O)NC3c4c(Br)cccc4CC23)OC1=O (stereo not drawn) [Compound A6]
[7]
  Germination % at concentration of 0.001 mg l^−1: 22.3 cde %
[8]
  Germination % at concentration of 0.01 mg l^−1: 59.2 abcd %
[9]
  Germination % at concentration of 0.1 mg l^−1: 27.8 bcde %

## C=CCN1C(=O)C(=COC2C=C(C)C(=O)O2)C2Cc3ccccc3C21 (mixture of isomers) [A29*]
[10]
  Germination % at concentration of 0.001 mg l^−1: 90.3 abc %
[11]
  Germination % at concentration of 0.01 mg l^−1: 94.5 abc %
[12]
  Germination % at concentration of 0.1 mg l^−1: 94.0 abc %

## CC1=CC(OC=C2C(=O)N(c3ccccc3)C3c4ccccc4CC23)OC1=O (stereo not drawn) [Compound A17]
[1]
  Germination % at concentration of 0.001 mg l^−1: 99.2 a %
[2]
  Germination % at concentration of 0.01 mg l^−1: 98.9 a %
[3]
  Germination % at concentration of 0.1 mg l^−1: 99.4 a %

## CC1=CC(OC=C2C(=O)NC3c4ccc(Cl)cc4CC23)OC1=O (stereo not drawn) [Compound A10]
[7]
  Germination % at concentration of 0.001 mg l^−1: 81.3 abc %
[8]
  Germination % at concentration of 0.01 mg l^−1: 84.0 ab %
[9]
  Germination % at concentration of 0.1 mg l^−1: 85.1 ab %

## CC1=CC(OC=C2C(=O)N(c3ccc(C(F)(F)F)cc3)C3c4ccccc4CC23)OC1=O (mixture of isomers) [A19*]
[10]
  Germination % at concentration of 0.001 mg l^−1: 71.5 abcde %
[11]
  Germination % at concentration of 0.01 mg l^−1: 92.2 abc %
[12]
  Germination % at concentration of 0.1 mg l^−1: 96.4 a %

## CC1=CC(OC=C2C(=O)N(C(=O)OC(C)(C)C)C3c4ccccc4CC23)OC1=O (mixture of isomers) [A15*]
[4]
  Germination % at concentration of 0.001 mg l^−1: 0 e %
[5]
  Germination % at concentration of 0.01 mg l^−1: 12.4 de %
[6]
  Germination % at concentration of 0.1 mg l^−1: 25 d %

## CC1=CC(OC=C2C(=O)N(c3nccs3)C3c4ccccc4CC23)OC1=O (stereo not drawn) [Compound A26]
[10]
  Germination % at concentration of 0.001 mg l^−1: 93.9 abc %
[11]
  Germination % at concentration of 0.01 mg l^−1: 95.4 ab %
[12]
  Germination % at concentration of 0.1 mg l^−1: 93.9 abc %

## CC1=CC(OC=C2C(=O)N(C(=O)OC(C)(C)C)C3c4ccccc4C(F)C23)OC1=O (mixture of isomers) [A25*]
[1]
  Germination % at concentration of 0.001 mg l^−1: 1.2 c %
[2]
  Germination % at concentration of 0.01 mg l^−1: 14.3 c %
[3]
  Germination % at concentration of 0.1 mg l^−1: 86.3 ab %

## CC1=CC(O/C=C2/C(=O)N(Cc3ccc(F)cc3)C3c4ccccc4CC23)OC1=O (stereo not drawn) [A27*, (3E)-1-[(4-fluorophenyl)methyl]-3-[(4-methyl-5-oxo-2H-furan-2-yl)oxymethylene]-4,8b-dihydro-3aH-indeno[1,2-b]pyrrol-2-one]
[10]
  Germination % at concentration of 0.001 mg l^−1: 7.7 fg %
[11]
  Germination % at concentration of 0.01 mg l^−1: 63.3 abcde %
[12]
  Germination % at concentration of 0.1 mg l^−1: 80.1 abcde %

## CC1=C[C@H](O/C=C2/C(=O)O[C@@H]3c4ccccc4C[C@H]23)OC1=O [GR24, reference compound]
0.001 mg l^−1
  Germination (%): 25.9%
0.01 mg l^−1
  Germination (%): 44.9%
0.1 mg l^−1
  Germination (%): 59.8%

## CC1=CC(OC=C2C(=O)N(c3ccc(C#N)cn3)C3c4ccccc4CC23)OC1=O (mixture of isomers) [A16*]
[10]
  Germination % at concentration of 0.001 mg l^−1: 7.8 fg %
[11]
  Germination % at concentration of 0.01 mg l^−1: 60.6 cde %
[12]
  Germination % at concentration of 0.1 mg l^−1: 88.2 abc %

## CC(=O)OC1c2ccccc2C2C1C(=COC1C=C(C)C(=O)O1)C(=O)N2C(=O)OC(C)(C)C (mixture of isomers) [A24*]
[10]
  Germination % at concentration of 0.001 mg l^−1: 44.8 def %
[11]
  Germination % at concentration of 0.01 mg l^−1: 86.4 abcd %
[12]
  Germination % at concentration of 0.1 mg l^−1: 96.8 a %

## COc1ccc(N2C(=O)C(=COC3C=C(C)C(=O)O3)C3Cc4ccccc4C32)cc1 (stereo not drawn) [Compound A20]
[1]
  Germination % at concentration of 0.001 mg l^−1: 2.0 c %
[2]
  Germination % at concentration of 0.01 mg l^−1: 14.4 c %
[3]
  Germination % at concentration of 0.1 mg l^−1: 89.3 ab %

## CC1=CC(OC=C2C(=O)NC3c4cccc(C)c4CC23)OC1=O (stereo not drawn) [Compound A5]
[7]
  Germination % at concentration of 0.001 mg l^−1: 74.5 abc %
[8]
  Germination % at concentration of 0.01 mg l^−1: 90 a %
[9]
  Germination % at concentration of 0.1 mg l^−1: 85.5 ab %

Source: patent US8946280B2, “Plant growth regulating compounds” (Syngenta Participations AG, priority 2010, dated 2015)
